Measurements as given in patent publication US20240066086A1, “Topical Hyperpigmentation Compositions and Method of Use” (Allergan Sales, LLC, priority 2022, published 2024).

Tests used:
Type in all cases: cell-based
[1] = system: human melanoma cell line MNT-1 cells; assay: in vitro melanogenesis / melanin production in MNT-1 cells
Description: In the MNT-1 cell in vitro tests, neferine and liensinine reduced melanin production after seven days by at least 50%, 60%, 70%, 80% or greater at concentrations ranging from 0.1 μM to 5 μM.

[2] = system: 3-D dark pigmented epidermis model Melanoderm™ MEL0300B tissue; assay: in vitro melanogenesis in 3-D pigmented epidermis model
primary human melanocyes = assay: in vitro melanogenesis in primary melanocytes

Measured: inhibition of melanogenesis

COc1cc2c(cc1OC)[C@@H](Cc1ccc(O)c(Oc3cc4c(cc3OC)CCN(C)[C@@H]4Cc3ccc(O)cc3)c1)N(C)CC2 [liensinine]
significantly inhibit melanogenesis: all assays above

COc1ccc(C[C@@H]2c3cc(Oc4cc(C[C@@H]5c6cc(OC)c(OC)cc6CCN5C)ccc4O)c(OC)cc3CCN2C)cc1 [Neferine, neferine]
significantly inhibit melanogenesis: all assays above
